# Tests used:
# Settings in all cases: 48 h
# [1] = tested on: NOMO1; experiment: AUC of viability dose-response curve (% viability x log10 dose units); higher = less sensitive
# Method in brief: (§1)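 Seeding of medium-adapted leukemia cells was at 500 or 1000 cells/well in 1536-well plates, followed by 48 h at 37°C with library compounds in DMSO at 11 threefold doses from 47 μM to 0.79 nM. CellTiter-Glo One luminescence was normalised per plate to DMSO and cell-free wells and fitted as a four-parameter log-logistic function of log10 dose. Area under the curve was integrated by trapezoidal rule, with curves exceeding full viability scaled and curves failing quality control removed.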
# [2] = tested on: P12-Ichikawa; experiment: as above
# Method in brief: as §1
# [3] = tested on: SEM cells; experiment: as above
# Method in brief: as §1
# [4] = tested on: NOMO1; experiment: cell viability relative to DMSO control; higher = less cytotoxic
# Method in brief: (§2)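 Viability is a per-plate percentage relative to DMSO wells, with cell-free wells as background. CellTiter-Glo One luminescence was read after 48 h at 37°C on 1536-well plates (5 μl) of NOMO1 or SEM (500 cells/well) or P12-Ichikawa (1000 cells/well) leukemia cells. The cells had been adapted for at least four passages in each medium and pin-dosed with library compounds in DMSO from 47 μM to 0.79 nM in 11 threefold steps.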
# [5] = tested on: P12-Ichikawa; experiment: as above
# Method in brief: as §2
# [6] = tested on: SEM cells; experiment: as above
# Method in brief: as §2
# [7] = RPMI 5 mM glucose + 10% dialyzed FBS
# [8] = HPLM + 10% dialyzed FBS, 0.000781 µM
# [9] = HPLM + 10% dialyzed FBS, 0.00234 µM
# [10] = HPLM + 10% dialyzed FBS, 0.00702 µM
# [11] = HPLM + 10% dialyzed FBS, 0.0211 µM
# [12] = HPLM + 10% dialyzed FBS, 0.0632 µM
# [13] = HPLM + 10% dialyzed FBS, 0.19 µM
# [14] = HPLM + 10% dialyzed FBS, 0.569 µM
# [15] = HPLM + 10% dialyzed FBS, 1.71 µM
# [16] = HPLM + 10% dialyzed FBS, 5.12 µM
# [17] = HPLM + 10% dialyzed FBS, 15.4 µM
# [18] = HPLM + 10% dialyzed FBS, 46.1 µM
# [19] = RPMI 5 mM glucose + 10% FBS, 0.000781 µM
# [20] = RPMI 5 mM glucose + 10% FBS, 0.00234 µM
# [21] = RPMI 5 mM glucose + 10% FBS, 0.00702 µM
# [22] = RPMI 5 mM glucose + 10% FBS, 0.0211 µM
# [23] = RPMI 5 mM glucose + 10% FBS, 0.0632 µM
# [24] = RPMI 5 mM glucose + 10% FBS, 0.19 µM
# [25] = RPMI 5 mM glucose + 10% FBS, 0.569 µM
# [26] = RPMI 5 mM glucose + 10% FBS, 1.71 µM
# [27] = RPMI 5 mM glucose + 10% FBS, 5.12 µM
# [28] = RPMI 5 mM glucose + 10% FBS, 15.4 µM
# [29] = RPMI 5 mM glucose + 10% FBS, 46.1 µM
# [30] = RPMI 5 mM glucose + 10% dialyzed FBS, 0.000781 µM
# [31] = RPMI 5 mM glucose + 10% dialyzed FBS, 0.00234 µM
# [32] = RPMI 5 mM glucose + 10% dialyzed FBS, 0.00702 µM
# [33] = RPMI 5 mM glucose + 10% dialyzed FBS, 0.0211 µM
# [34] = RPMI 5 mM glucose + 10% dialyzed FBS, 0.0632 µM
# [35] = RPMI 5 mM glucose + 10% dialyzed FBS, 0.19 µM
# [36] = RPMI 5 mM glucose + 10% dialyzed FBS, 0.569 µM
# [37] = RPMI 5 mM glucose + 10% dialyzed FBS, 1.71 µM
# [38] = RPMI 5 mM glucose + 10% dialyzed FBS, 5.12 µM
# [39] = RPMI 5 mM glucose + 10% dialyzed FBS, 15.4 µM
# [40] = RPMI 5 mM glucose + 10% dialyzed FBS, 46.1 µM
structure (smiles),measurement,setting,value
O=C(Nc1nc2ccccc2n1CCN1CCOCC1)c1cccc([N+](=O)[O-])c1,AUC of viability dose-response curve,[1]; HPLM + 10% dialyzed FBS,447
same,AUC of viability dose-response curve,[1]; RPMI 5 mM glucose + 10% FBS,465
same,AUC of viability dose-response curve,[1]; [7],470
same,AUC of viability dose-response curve,[2]; HPLM + 10% dialyzed FBS,462
same,AUC of viability dose-response curve,[2]; RPMI 5 mM glucose + 10% FBS,445
same,AUC of viability dose-response curve,[2]; [7],449
same,AUC of viability dose-response curve,[3]; HPLM + 10% dialyzed FBS,474
same,AUC of viability dose-response curve,[3]; RPMI 5 mM glucose + 10% FBS,465
same,AUC of viability dose-response curve,[3]; [7],444
O=C1\C=C/C[C@@H]2[C@H]3CCCN4CCC[C@@H](CN12)[C@@H]34,cell viability,[4]; [8],116%
same,cell viability,[4]; [9],110%
same,cell viability,[4]; [10],117%
same,cell viability,[4]; [11],106%
same,cell viability,[4]; [12],125%
same,cell viability,[4]; [13],107%
same,cell viability,[4]; [14],101%
same,cell viability,[4]; [15],107%
same,cell viability,[4]; [16],121%
same,cell viability,[4]; [17],89.2%
same,cell viability,[4]; [18],104%
same,cell viability,[4]; [19],90.2%
same,cell viability,[4]; [20],94.3%
same,cell viability,[4]; [21],97.1%
same,cell viability,[4]; [22],90.9%
same,cell viability,[4]; [23],95.4%
same,cell viability,[4]; [24],93%
same,cell viability,[4]; [25],93.4%
same,cell viability,[4]; [26],85.9%
same,cell viability,[4]; [27],91.8%
same,cell viability,[4]; [28],93%
same,cell viability,[4]; [29],93.4%
same,cell viability,[4]; [30],106%
same,cell viability,[4]; [31],107%
same,cell viability,[4]; [32],103%
same,cell viability,[4]; [33],116%
same,cell viability,[4]; [34],94.1%
same,cell viability,[4]; [35],104%
same,cell viability,[4]; [36],90.3%
same,cell viability,[4]; [37],106%
same,cell viability,[4]; [38],105%
same,cell viability,[4]; [39],98.9%
same,cell viability,[4]; [40],86.6%
same,cell viability,[5]; [8],98.2%
same,cell viability,[5]; [9],103%
same,cell viability,[5]; [10],107%
same,cell viability,[5]; [11],101%
same,cell viability,[5]; [12],108%
same,cell viability,[5]; [13],99.2%
same,cell viability,[5]; [14],98.1%
same,cell viability,[5]; [15],104%
same,cell viability,[5]; [16],98.9%
same,cell viability,[5]; [17],99.1%
same,cell viability,[5]; [18],89.6%
same,cell viability,[5]; [19],103%
same,cell viability,[5]; [20],116%
same,cell viability,[5]; [21],109%
same,cell viability,[5]; [22],101%
same,cell viability,[5]; [23],98.5%
same,cell viability,[5]; [24],94.8%
same,cell viability,[5]; [25],98.5%
same,cell viability,[5]; [26],85.7%
same,cell viability,[5]; [27],93.5%
same,cell viability,[5]; [28],96.8%
same,cell viability,[5]; [29],89.7%
same,cell viability,[5]; [30],102%
same,cell viability,[5]; [31],98.5%
same,cell viability,[5]; [32],97.8%
same,cell viability,[5]; [33],105%
same,cell viability,[5]; [34],98.4%
same,cell viability,[5]; [35],94%
same,cell viability,[5]; [36],105%
same,cell viability,[5]; [37],95.7%
same,cell viability,[5]; [38],100%
same,cell viability,[5]; [39],94.3%
same,cell viability,[5]; [40],86.8%
same,cell viability,[6]; [8],109%
same,cell viability,[6]; [9],113%
same,cell viability,[6]; [10],111%
same,cell viability,[6]; [11],112%
same,cell viability,[6]; [12],99.6%
same,cell viability,[6]; [13],105%
same,cell viability,[6]; [14],117%
same,cell viability,[6]; [15],112%
same,cell viability,[6]; [16],93.4%
same,cell viability,[6]; [17],102%
same,cell viability,[6]; [18],101%
same,cell viability,[6]; [19],90.8%
same,cell viability,[6]; [20],77.1%
same,cell viability,[6]; [21],103%
same,cell viability,[6]; [22],108%
same,cell viability,[6]; [23],101%
same,cell viability,[6]; [24],59.3%
same,cell viability,[6]; [25],99.5%
same,cell viability,[6]; [26],107%
same,cell viability,[6]; [27],87.1%
same,cell viability,[6]; [28],88.6%
same,cell viability,[6]; [29],95.7%
same,cell viability,[6]; [30],89.1%
same,cell viability,[6]; [31],108%
same,cell viability,[6]; [32],101%
same,cell viability,[6]; [33],115%
same,cell viability,[6]; [34],108%
same,cell viability,[6]; [35],81.8%
same,cell viability,[6]; [36],106%
same,cell viability,[6]; [37],118%
same,cell viability,[6]; [38],105%
same,cell viability,[6]; [39],98.9%
same,cell viability,[6]; [40],92.2%
same,AUC of viability dose-response curve,[1]; HPLM + 10% dialyzed FBS,456
same,AUC of viability dose-response curve,[1]; RPMI 5 mM glucose + 10% FBS,442
same,AUC of viability dose-response curve,[1]; [7],448
same,AUC of viability dose-response curve,[2]; HPLM + 10% dialyzed FBS,473
same,AUC of viability dose-response curve,[2]; RPMI 5 mM glucose + 10% FBS,429
same,AUC of viability dose-response curve,[2]; [7],469
same,AUC of viability dose-response curve,[3]; HPLM + 10% dialyzed FBS,465
same,AUC of viability dose-response curve,[3]; RPMI 5 mM glucose + 10% FBS,441
same,AUC of viability dose-response curve,[3]; [7],476
C=CCNC1=C2C[C@@H](C)C[C@H](OC)[C@H](O)[C@@H](C)/C=C(\C)[C@H](OC(N)=O)[C@@H](OC)/C=C\C=C(/C)C(=O)NC(=CC1=O)C2=O,AUC of viability dose-response curve,[1]; HPLM + 10% dialyzed FBS,390
same,AUC of viability dose-response curve,[1]; RPMI 5 mM glucose + 10% FBS,389
same,AUC of viability dose-response curve,[1]; [7],385
same,AUC of viability dose-response curve,[2]; HPLM + 10% dialyzed FBS,403
same,AUC of viability dose-response curve,[2]; RPMI 5 mM glucose + 10% FBS,380
same,AUC of viability dose-response curve,[2]; [7],384
same,AUC of viability dose-response curve,[3]; HPLM + 10% dialyzed FBS,310
same,AUC of viability dose-response curve,[3]; RPMI 5 mM glucose + 10% FBS,285
same,AUC of viability dose-response curve,[3]; [7],291
Cc1c(O)cccc1C(=O)N[C@@H](CSc1ccccc1)[C@H](O)CN1C[C@H]2CCCC[C@H]2C[C@H]1C(=O)NC(C)(C)C,AUC of viability dose-response curve,[1]; HPLM + 10% dialyzed FBS,465
same,AUC of viability dose-response curve,[1]; RPMI 5 mM glucose + 10% FBS,459
same,AUC of viability dose-response curve,[1]; [7],455
same,AUC of viability dose-response curve,[2]; HPLM + 10% dialyzed FBS,447
same,AUC of viability dose-response curve,[2]; RPMI 5 mM glucose + 10% FBS,459
same,AUC of viability dose-response curve,[2]; [7],461
same,AUC of viability dose-response curve,[3]; HPLM + 10% dialyzed FBS,426
same,AUC of viability dose-response curve,[3]; RPMI 5 mM glucose + 10% FBS,453
same,AUC of viability dose-response curve,[3]; [7],455

# Source: the supplement of paper PMC11451515
